# Reference: patent publication US9453034B2, “C2-azaspiro iminothiazine dioxides as BACE inhibitors, compositions, and their use” (Merck Sharp & Dohme Corp., priority 2013, dated 2016)
# How the values were obtained:
# [1] = target: soluble human BACE1 catalytic domain (Homo sapiens (Human), UniProt P56817); assay: BACE1 HTRF FRET Assay; type: biochemical; conditions: Ki calculated from IC50 using the Cheng-Prusoff equation; QSY7-APPswe-Eu substrate, pH 5.0
# Source text: Reagents: Na^+-Acetate pH 5.0; 1% Brij-35; Glycerol; Dimethyl Sulfoxide (DMSO);
# A homogeneous time-resolved FRET assay can be used to determine IC50 values for inhibitors of the soluble human BACE1 catalytic domain. This assay monitors the increase of 620 nm fluorescence that resulted from BACE1 cleavage of an APPswedish APP^swe mutant peptide FRET substrate (QSY7-[…]-Europium-amide). This substrate contains an N-terminal QSY7 moiety that serves as a quencher of the C-terminal Europium fluorophore (620 nm Em). […] Inhibition of BACE1 cleavage of the QSY7-APP^swe-Eu substrate by inhibitors is manifested as a suppression of 620 nm fluorescence.
# Reactions are initiated by addition of 10 μl of 600 nM QSY7-APP^swe-Eu substrate (200 nM final) to give a final reaction volume of 30 μl in a 384 well Nunc HTRF plate. The reactions are incubated at 30° C. for 1.5 hours. The 620 nm fluorescence is then read on a Rubystar HTRF plate reader (BMG Labtechnologies) using a 50 millisecond delay followed by a 400 millisecond acquisition time window. Inhibitor IC50 values are derived from non-linear regression analysis of concentration response curves.
# [2] = target: purified human autoBACE-2 (Homo sapiens (Human), UniProt Q9Y5Z0); assay: BACE-2 Assay (BACE-HTRF assay); type: biochemical; conditions: Ki calculated from IC50 using the Cheng-Prusoff equation; QSY7-EISEVNLDAEFC-Eu-amide substrate, pH 5.0; read-out: BACE2 Ki
# Procedure: Inhibitor IC50s at purified human autoBACE-2 are determined in a time-resolved endpoint proteolysis assay that measures hydrolysis of the QSY7-EISEVNLDAEFC-Eu-amide FRET peptide substrate (BACE-HTRF assay). BACE-mediated hydrolysis of this peptide results in an increase in relative fluorescence (RFU) at 620 nm after excitation with 320 nm light. Inhibitor compounds, prepared at 3× the desired final concentration in 1×BACE assay buffer (20 mM sodium acetate pH 5.0, 10% glycerol, 0.1% Brij-35) supplemented with 7.5% DMSO are pre-incubated with an equal volume of autoBACE-2 enzyme diluted in 1×BACE assay buffer (final enzyme concentration 1 nM) in black 384-well NUNC plates for 30 minutes at 30° C. The assay is initiated by addition of an equal volume of the QSY7-EISEVNLDAEFC-Eu-amide substrate (200 nM final concentration, Km=8 μM […] for autoBACE-2) prepared in 1×BACE assay buffer supplemented with 7.5% DMSO and incubated for 90 minutes at 30° C. DMSO is present at 5% final concentration in the assay. Following laser excitation of sample wells at 320 nm, the fluorescence signal at 620 nm is collected for 400 ms following a 50 μs delay on a RUBYstar HTRF plate reader (BMG Labtechnologies). Raw RFU data is normalized to maximum (1.0 nM BACE/DMSO) and minimum (no enzyme/DMSO) RFU values. IC50s are determined by nonlinear regression analysis (sigmoidal dose response, variable slope) of percent inhibition data with minimum and maximum values set to 0 and 100 percent respectively. Similar IC50s are obtained when using raw RFU data. The Ki values are calculated from the IC50 using the Cheng-Prusoff equation.
# purified human autoBACE-2, sequence (Q9Y5Z0 63-473): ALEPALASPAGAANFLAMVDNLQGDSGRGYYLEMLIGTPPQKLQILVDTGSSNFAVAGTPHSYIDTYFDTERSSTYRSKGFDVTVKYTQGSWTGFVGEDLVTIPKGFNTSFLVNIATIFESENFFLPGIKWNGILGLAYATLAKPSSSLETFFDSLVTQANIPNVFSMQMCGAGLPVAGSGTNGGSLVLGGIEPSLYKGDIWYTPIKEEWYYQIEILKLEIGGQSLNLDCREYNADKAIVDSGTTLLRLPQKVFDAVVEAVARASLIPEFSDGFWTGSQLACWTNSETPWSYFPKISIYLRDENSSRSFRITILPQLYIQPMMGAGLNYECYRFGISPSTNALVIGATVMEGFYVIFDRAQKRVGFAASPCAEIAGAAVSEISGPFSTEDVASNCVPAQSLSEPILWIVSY
# soluble human BACE1 catalytic domain, sequence (P56817 75-416): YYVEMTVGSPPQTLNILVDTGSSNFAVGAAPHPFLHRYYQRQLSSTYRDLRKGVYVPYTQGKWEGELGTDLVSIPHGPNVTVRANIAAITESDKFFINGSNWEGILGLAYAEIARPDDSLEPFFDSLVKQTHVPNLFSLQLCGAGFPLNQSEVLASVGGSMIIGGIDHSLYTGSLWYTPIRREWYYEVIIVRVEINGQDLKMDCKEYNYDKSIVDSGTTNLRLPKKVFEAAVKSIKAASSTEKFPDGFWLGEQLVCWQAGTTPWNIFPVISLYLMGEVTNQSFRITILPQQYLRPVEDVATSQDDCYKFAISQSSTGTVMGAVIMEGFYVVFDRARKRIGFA
SMILES,Ki [1] [nM],Ki [2] [nM]
"CN1CC2(C1)C(=N)N[C@](C)(c1cc(NC(=O)c3ccc(OC(F)F)cn3)ccc1F)CS2(=O)=O [Example 7, 5-(difluoromethoxy)-N-{4-fluoro-3-[(7R)-9-imino-2,7-dimethyl-5,5-dioxido-5-thia-2,8-diazaspiro[3.5]non-7-yl]phenyl}pyridine-2-carboxamide]",2.7,4.3
"COc1cnc(C(=O)Nc2ccc(F)c([C@]3(C)CS(=O)(=O)C4(CCN(C)CC4)C(=N)N3)c2)c(C)c1 [Example 33, N-{4-fluoro-3-[(3R)-5-imino-3,9-dimethyl-1,1-dioxido-1-thia-4,9-diazaspiro[5.5]undec-3-yl]phenyl}-5-methoxy-3-methylpyridine-2-carboxamide]",37,23
"CN1CC2(C1)C(=N)N[C@](C)(c1cc(NC(=O)c3ccc(OCF)cn3)ccc1F)CS2(=O)=O [Example 8, N-{4-fluoro-3-[(7R)-9-imino-2,7-dimethyl-5,5-dioxido-5-thia-2,8-diazaspiro[3.5]non-7-yl]phenyl}-5-(fluoromethoxy) pyridine-2-carboxamide]",4.9,1.5
"Cc1cc(C#N)cnc1C(=O)Nc1ccc(F)c([C@]2(C)CS(=O)(=O)C3(CCN(C)CC3)C(=N)N2)c1 [Example 35, 5-cyano-N-{4-fluoro-3-[(3R)-5-imino-3,9-dimethyl-1,1-dioxido-1-thia-4,9-diazaspiro[5.5]undec-3-yl]phenyl}-3-methylpyridine-2-carboxamide]",35,24
"CN1CC2(C1)C(=N)N[C@](C)(c1cc(NC(=O)c3ncc(C#N)cc3C(F)F)ccc1F)CS2(=O)=O [Example 12b, 5-cyano-3-(difluoromethyl)-N-{4-fluoro-3-[(7R)-9-imino-2,7-dimethyl-5,5-dioxido-5-thia-2,8-diazaspiro [3.5]non-7-yl]phenyl}pyridine-2-carboxamide]",1.4,0.5
"CN1CCC2(CC1)C(=N)N[C@](C)(c1cc(NC(=O)c3ccc(OC(F)F)cn3)ccc1F)CS2(=O)=O [Example 31, 5-(difluoromethoxy)-N-{4-fluoro-3-[(3R)-5-imino-3,9-dimethyl-1,1-dioxido-1-thia-4,9-diazaspiro[5.5]undec-3-yl]phenyl}pyridine-2-carboxamide]",11,27
"CN1CC2(C1)C(=N)N[C@](C)(c1cc(NC(=O)c3ccc(F)cn3)ccc1F)CS2(=O)=O [Example 2, 5-fluoro-N-{4-fluoro-3-[(7R)-9-imino-2,7-dimethyl-5,5-dioxido-5-thia-2,8-diazaspiro[3.5]non-7-yl]phenyl}pyridine-2-carboxamide]",6.1,1.2
"COc1cnc(C(=O)Nc2ccc(F)c([C@]3(C)CS(=O)(=O)C4(CCN(C)CC4)C(=N)N3)c2)cn1 [Example 28, N-{4-fluoro-3-[(3R)-5-imino-3,9-dimethyl-1,1-dioxido-1-thia-4,9-diazaspiro[5.5]undec-3-yl]phenyl}-5-methoxypyrazine-2-carboxamide]",19,29
CN1CCC2(CC1)C(=N)N[C@](C)(c1cc(NC(=O)c3ccc(OC(F)(F)F)cn3)ccc1F)CS2(=O)=O [Example 30],15,52
"C[C@@]1(c2cc(NC(=O)c3ccc(C#N)cn3)ccc2F)CS(=O)(=O)C2(CNC2)C(=N)N1 [Example 36c, (R)-5-cyano-N-(4-fluoro-3-(9-imino-7-methyl-5,5-dioxido-5-thia-2,8-diazaspiro[3.5]nonan-7-yl)phenyl)picolinamide]",3.7,2.6
"COCC(=O)Nc1ccc(F)c([C@]2(C)CS(=O)(=O)C3(CCN(C)CC3)C(=N)N2)c1 [Example 36b, N-{4-fluoro-3-[(3R)-5-imino-3,9-dimethyl-1,1-dioxido-1-thia-4,9-diazaspiro[5.5]undec-3-yl]phenyl}-2-methoxyacetamide]",548,56
"COc1cnc(C(=O)Nc2ccc(F)c([C@]3(C)CS(=O)(=O)C4(CCN(C)CC4)C(=N)N3)c2)c(C)n1 [Example 34, N-{4-fluoro-3-[(3R)-5-imino-3,9-dimethyl-1,1-dioxido-1-thia-4,9-diazaspiro[5.5]undec-3-yl]phenyl}-5-methoxy-3-methylpyrazine-2-carboxamide]",37,23
"COc1ccc(C(=O)Nc2ccc(F)c([C@]3(C)CS(=O)(=O)C4(CCN(C)CC4)C(=N)N3)c2)nc1 [Example 27, N-{4-fluoro-3-[(3R)-5-imino-3,9-dimethyl-1,1-dioxido-1-thia-4,9-diazaspiro[5.5]undec-3-yl]phenyl}-5-methoxypyridine-2-carboxamide]",35,24
"CN1CCC2(CC1)C(=N)N[C@](C)(c1cc(NC(=O)c3ccc(C#N)cn3)ccc1F)CS2(=O)=O [Example 25, 5-cyano-N-{4-fluoro-3-[(3R)-5-imino-3,9-dimethyl-1,1-dioxido-1-thia-4,9-diazaspiro[5.5]undec-3-yl]phenyl}pyridine-2-carboxamide]",6.4,8.4
"COc1ccc(C(=O)Nc2ccc(F)c([C@]3(C)CS(=O)(=O)C4(CN(c5ccc([N+](=O)[O-])cc5)C4)C(=N)N3)c2)nc1 [Example 42, (R)—N-(4-fluoro-3-(9-imino-7-methyl-2-(4-nitrophenyl)-5,5-dioxido-5-thia-2,8-diazaspiro[3.5]nonan-7-yl)phenyl)-5-methoxypicolinamide]",1.4,0.32
"CC#CCOc1ccc(C(=O)Nc2ccc(F)c([C@]3(C)CS(=O)(=O)C4(CCN(C)CC4)C(=N)N3)c2)nc1 [Example 36, 5-(but-2-yn-1-yloxy)-N-{4-fluoro-3-[(3R)-5-imino-3,9-dimethyl-1,1-dioxido-1-thia-4,9-diazaspiro[5.5]undec-3-yl]phenyl}pyridine-2-carboxamide]",2.3,30
"CN1CC2(C1)C(=N)N[C@](C)(c1cc(NC(=O)c3ccc(Cl)cn3)ccc1F)CS2(=O)=O [Example 5, 5-chloro-N-{4-fluoro-3-[(7R)-9-imino-2,7-dimethyl-5,5-dioxido-5-thia-2,8-diazaspiro [3.5]non-7-yl]phenyl}pyridine-2-carboxamide]",2.2,0.4
"COc1cnc(C(=O)Nc2ccc(F)c([C@]3(C)CS(=O)(=O)C4(CN(C)C4)C(=N)N3)c2)c(C)n1 [Example 10, N-{4-fluoro-3-[(7R)-9-imino-2,7-dimethyl-5,5-dioxido-5-thia-2,8-diazaspiro[3.5]non-7-yl]phenyl}-5-methoxy-3-methylpyrazine-2-carboxamide]",10.4,4.9
"COc1cnc(C(=O)Nc2ccc(F)c([C@]3(C)CS(=O)(=O)C4(CN(C)C4)C(=N)N3)c2)cn1 [Example 4, N-{4-fluoro-3-[(7R)-9-imino-2,7-dimethyl-5,5-dioxido-5-thia-2,8-diazaspiro[3.5]non-7-yl]phenyl}-5-methoxypyrazine-2-carboxamide]",7.9,6.2
"CN1CCC2(CC1)C(=N)N[C@](C)(c1cc(NC(=O)c3ccc(Cl)cn3)ccc1F)CS2(=O)=O [Example 29, (R)-5-chloro-N-(4-fluoro-3-(5-imino-3,9-dimethyl-1,1-dioxido-1-thia-4,9-diazaspiro[5.5]undecan-3-yl)phenyl)picolinamide]",12,3
